Consider five compounds from patent US20220170052A1, “USE OF BACTERIOCIN-PRODUCING ETHANOLOGENS IN BIOFUEL PRODUCTION” (Wisconsin Alumni Research Foundation, priority 2016, published 2022).

Where no end group is shown, it is not given here.

The subject of assay [1] is wild lactic acid bacteria isolated from ethanol plants. Nature of the assay: Sensitivity of 15 wild lactic acid bacteria isolated from ethanol plants to inhibitors in corn steep liquor broth (CSL). Format: cell-based. The settings on record: share of 15 wild LAB isolates, 33° C. From the text: Pediocin and brochocin are known to inhibit a particular range of LAB, and serve as exemplary model bacteriocins. Other bacteriocins with equal or even broader inhibition ranges may be, based on the present disclosure, synthesized and secreted in a similar manner. Table 8 compares the effectiveness of three different LAB bacteriocins against the three antibiotics most commonly utilized in the ethanol industry as well as another industry antimicrobial ingredient, hop acids. […] Fifteen strains representative of the organisms isolated from corn ethanol plants were utilized. […] The bacteriocins were utilized at either levels currently being produced (pediocin), at levels reported by others in the research literature (nisin) using commercially available preparations, or in an assay system that allows for analyzing relatively broad range of concentrations (brochocin inhibition assay by agar diffusion).

Assay [2] relates to ethanol plant isolates (LAB). Nature of the assay: Growth (O.D.600) of ethanol plant isolates in corn mash extract with added pediocin. The conditions noted are these: Pediocin (Sigma) 500 ng/ml in corn mash extract, 37° C. Format: cell-based, lactic acid bacteria. The source says:
Screening LAB isolated from ethanol plants for susceptibility to pediocin or brochocin. A variety of microorganisms are known to contaminate bioethanol fermentations, however LAB, particularly lactobacilli, are of primary concern (Beckner et al., 2011). The inventors' laboratory has isolated sixty-two LAB from four ethanol plants in the Midwest region of the United States. This ethanol plant culture collection contains isolates of Lb. fermentum, Lb. plantarum, Lb. brevis, Lb. mucosae, Lb. helveticus, Lb. heilongjiangensis, Lb. amylovorous, Lb. casei, Enterococcus sp. and Pediococcus pentosaceus strains that were gathered from all stages of the ethanol fermentation process. Thirty of these cultures were propagated from frozen by sequential transfers through MRS broth and corn mash extract, a filtrate obtained from corn mash from a bioethanol plant. Pediocin (Sigma) was added at 500 ng/ml to corn mash extract, inoculated with one of the ethanol plant isolates, incubated at 37° C. and growth was monitored by following O.D.600.

On to `CC[C@H]1OC(=O)[C@H](C)[C@@H](O[C@H]2C[C@@](C)(OC)[C@@H](O)[C@H](C)O2)[C@H](C)[C@@H](O[C@@H]2O[C@H](C)C[C@H](N(C)C)[C@H]2O)[C@](C)(O)C[C@@H](C)C(=O)[C@H](C)[C@@H](O)[C@]1(C)O` [Erythromycin], for which, in assay [1] (Erythromycin 1 μg/mL), the Resistant is reported as 7% and the Sensitive is given as 93%.

“pediocin (KYYGNGVTCGKHSCSVDWGKATTCIINNGAMAWATGGHQGNHKC; ends and bridges not checked; cysteine pairing not given here; UniProt P29430 19-62, looked up) [Class IIa bacteriocin; commercial preparation (Sigma), used at the concentration produced by Lb. casei E3 (pNZPed+)]”: in assay [1] (Pediocin 500 IU/mL), the Resistant is recorded as 67% and the Sensitive is recorded as 33%. For the same compound, in assay [2], the “ethanol plant isolates whose growth was inhibited” value is given as “five of the thirty”.

As for Virginiamycin, in assay [1] (Virginiamycin 3 μg/mL), the Resistant amounted to 13% and the Sensitive came to 87%.

As to Penicillin, in assay [1] (Penicillin 6 μg/mL), the Resistant came out at 33% and the Sensitive is 77%.

In assay [1] (Nisin 500 ng/mL), nisin registered a Resistant of 13% and a Sensitive of 87%.
